Reference: US20240150358A1, “PURINES AND METHODS OF THEIR USE” (Kineta, Inc., priority 2020, published 2024)

Key:
FAB1 TDP-43 yeast strain = assay: Propidium iodide flow cytometry viability assay, control FAB1 TDP-43 yeast strain; format: cell-based; settings: 15 μM to 0.11 μM
Text: (§1) Generation of TDP-43 yeast model expressing human PIKfyve. Human PIKFYVE (“entry clone”) was cloned into pAG416GPDccdB (“destination vector”) according to standard Gateway cloning protocols (Invitrogen, Life Technologies). The resulting pAG416GPD-PIKFYVE plasmids were amplified in E. coli and plasmid identity confirmed by restriction digest and Sanger sequencing. Lithium acetate/polyethylene glycol-based transformation was used to introduce the above PIKFYVE plasmid into a BY4741 yeast strain auxotrophic for the ura3 gene and deleted for two transcription factors that regulate the xenobiotic efflux pumps, a major efflux pump, and FAB1, the yeast ortholog of PIKFYVE (MATa, snq2::KILeu2; pdr3::Klura3; pdr1::NATMX; fab1::G418R, his3; leu2; ura3; met15; LYS2+) (FIG. 2). Transformed yeast were plated on solid agar plates with complete synthetic media lacking uracil (CSM-ura) and containing 2% glucose. Individual colonies harboring the control or PIKFYVE TDP-43 plasmids were recovered. A plasmid containing wild-type TDP-43 under the transcriptional control of the GAL1 promoter and containing the hygromycin-resistance gene as a selectable marker was transformed into the fab/::G418R pAG416GPD-PIKFYVE yeast strain (FIG. 1). Transformed yeast were plated on CSM-ura containing 2% glucose and […] after overnight recovery in media lacking antibiotic. Multiple independent isolates were further evaluated for cytotoxicity and TDP-43 expression levels.
(§2) Viability Assay. A control yeast strain with the wild-type yeast FAB1 gene and TDP-43 (“FAB1 TDP-43”, carries empty pAG416 plasmid), and the “PIKFYVE TDP-43” yeast strain, were assessed for toxicity using a propidium iodide viability assay. Both yeast strains were transferred from solid CSM-ura/2% glucose agar plates into 3 mL of liquid CSM-ura/2% glucose media for 6-8 hours at 30° C. with aeration. Yeast cultures were then diluted to an optical density at 600 nm wavelength (OD600) of 0.005 in 3 mL of CSM-ura/2% raffinose and grown overnight at 30° C. with aeration to an OD600 of 0.3-0.8. Log-phase overnight cultures were diluted to OD600 of 0.005 in CSM-ura containing either 2% raffinose or galactose and 150 μL dispensed into each well of a flat bottom 96-well plates. Compounds formulated in 100% dimethyl sulfoxide (DMSO) were serially diluted in DMSO and 1.5 μL diluted compound transferred to the 96-well plates using a multichannel pipet. Wells containing DMSO alone were also evaluated as controls for compound effects. Tested concentrations ranged from 15 μM to 0.11 μM. Cultures were immediately mixed to ensure compound distribution and covered plates incubated at 30° C. for 24 hours in a stationary, humified incubator.
(§3) Upon the completion of incubation, cultures were assayed for viability using propidium iodide (PI) to stain for dead/dying cells. A working solution of PI was made where, for each plate, 1 μL of 10 mM PI was added to 10 mL of CSM-ura (raffinose or galactose). The final PI solution ([…]) was dispensed into each well of a new round bottom 96-well plate. The overnight 96-well assay plate was then mixed with a multichannel pipet and 50 μL transferred to the PI-containing plate. This plate was then incubated for 30 minutes at 30° C. in the dark. A benchtop flow cytometer (Miltenyi MACSquant) was then used to assess red fluorescence (B2 channel), forward scatter, and side scatter (with following settings: gentle mix, high flow rate, fast measurement, 10,000 events). Intensity histograms were then gated for “PI-positive” or “PI-negative” using the raffinose and galactose cultures treated with DMSO as controls. The DMSO controls for raffinose or galactose-containing cultures were used to determine the window of increased cell death and this difference set to 100. All compounds were similarly gated and then compared to this maximal window to establish the percent reduction in PI-positive cells.

[1] = tested on: PIKFYVE TDP-43 yeast strain; assay: Propidium iodide flow cytometry viability assay, PIKFYVE TDP-43 yeast strain; format: cell-based; settings: yeast viability, 15 μM to 0.11 μM
Text: as §1, §2, §3

[2] = biological target: full-length human PIKFYVE (Homo sapiens (Human), UniProt Q9Y2I7, L932S/Q1183K/Q995L/S1033A/S696N/T998S); assay: PIKfyve biochemical assay (ADP-Glo Kinase assay, Carna Biosciences); settings: ADP-Glo with full-length PIKfyve; read-out: PIKfyve IC50
Chain of full-length human PIKFYVE (Q9Y2I7 whole entry S696N/L932S/Q995L/T998S/S1033A/Q1183K): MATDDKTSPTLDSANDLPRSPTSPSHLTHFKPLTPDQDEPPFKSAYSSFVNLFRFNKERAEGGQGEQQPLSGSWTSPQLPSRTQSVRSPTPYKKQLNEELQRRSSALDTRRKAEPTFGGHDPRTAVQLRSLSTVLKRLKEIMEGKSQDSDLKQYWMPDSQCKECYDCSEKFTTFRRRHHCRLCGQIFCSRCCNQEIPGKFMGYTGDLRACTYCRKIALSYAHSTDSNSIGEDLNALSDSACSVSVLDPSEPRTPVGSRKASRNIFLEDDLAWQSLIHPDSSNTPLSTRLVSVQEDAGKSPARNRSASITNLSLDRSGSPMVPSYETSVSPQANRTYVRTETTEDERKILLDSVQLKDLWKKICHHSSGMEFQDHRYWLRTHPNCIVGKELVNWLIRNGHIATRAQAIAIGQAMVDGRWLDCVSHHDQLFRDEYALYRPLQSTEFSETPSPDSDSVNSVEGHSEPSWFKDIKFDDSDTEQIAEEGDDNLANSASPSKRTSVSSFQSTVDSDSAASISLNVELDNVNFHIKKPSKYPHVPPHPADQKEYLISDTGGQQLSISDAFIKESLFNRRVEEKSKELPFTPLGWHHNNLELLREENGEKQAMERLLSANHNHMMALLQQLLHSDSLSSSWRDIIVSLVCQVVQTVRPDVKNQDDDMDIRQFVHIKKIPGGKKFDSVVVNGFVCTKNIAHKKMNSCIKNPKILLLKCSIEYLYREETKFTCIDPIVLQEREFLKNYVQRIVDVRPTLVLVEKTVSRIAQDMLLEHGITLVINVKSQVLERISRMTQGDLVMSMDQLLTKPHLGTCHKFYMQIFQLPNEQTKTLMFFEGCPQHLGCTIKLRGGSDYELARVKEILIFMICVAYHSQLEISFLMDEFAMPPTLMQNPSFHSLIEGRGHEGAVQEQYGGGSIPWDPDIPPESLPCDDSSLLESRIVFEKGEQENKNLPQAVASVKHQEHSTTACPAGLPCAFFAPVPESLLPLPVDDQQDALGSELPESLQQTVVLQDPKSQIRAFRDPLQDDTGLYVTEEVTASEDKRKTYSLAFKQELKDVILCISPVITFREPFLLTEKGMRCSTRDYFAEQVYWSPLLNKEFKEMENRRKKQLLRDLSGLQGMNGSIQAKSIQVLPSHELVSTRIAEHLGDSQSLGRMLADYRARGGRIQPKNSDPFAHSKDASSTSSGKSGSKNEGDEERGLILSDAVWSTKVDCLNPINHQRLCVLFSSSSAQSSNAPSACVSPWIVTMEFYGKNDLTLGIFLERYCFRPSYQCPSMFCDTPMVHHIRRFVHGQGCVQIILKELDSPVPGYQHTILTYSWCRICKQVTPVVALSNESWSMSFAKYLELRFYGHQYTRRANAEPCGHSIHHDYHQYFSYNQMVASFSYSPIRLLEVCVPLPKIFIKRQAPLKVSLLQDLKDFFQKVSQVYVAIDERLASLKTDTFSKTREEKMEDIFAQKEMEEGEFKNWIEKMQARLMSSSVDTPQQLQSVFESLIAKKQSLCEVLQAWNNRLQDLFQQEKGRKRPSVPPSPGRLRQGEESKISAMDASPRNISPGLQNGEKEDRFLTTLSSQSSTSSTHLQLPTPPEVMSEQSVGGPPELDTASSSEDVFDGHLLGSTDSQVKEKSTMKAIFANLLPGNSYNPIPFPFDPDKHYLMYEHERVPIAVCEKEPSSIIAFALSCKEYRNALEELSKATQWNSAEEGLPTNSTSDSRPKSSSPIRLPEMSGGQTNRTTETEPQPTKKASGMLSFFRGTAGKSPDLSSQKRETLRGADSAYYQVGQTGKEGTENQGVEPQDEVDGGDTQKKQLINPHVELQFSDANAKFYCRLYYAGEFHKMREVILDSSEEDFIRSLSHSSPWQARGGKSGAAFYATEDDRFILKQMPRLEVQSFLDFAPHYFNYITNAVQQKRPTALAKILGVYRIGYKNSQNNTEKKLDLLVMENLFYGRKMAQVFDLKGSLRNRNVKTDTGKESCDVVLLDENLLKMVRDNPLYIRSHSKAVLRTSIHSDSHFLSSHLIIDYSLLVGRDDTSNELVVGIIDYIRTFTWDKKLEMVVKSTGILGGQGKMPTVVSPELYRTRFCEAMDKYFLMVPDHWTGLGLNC

| Compound | FAB1 TDP-43 (active/inactive) (FAB1 TDP-43 yeast strain) | PIKfyve TDP-43 (active/inactive) [1] | IC50 [2] |
| --- | --- | --- | --- |
| Cc1cccc(/C=N/Nc2cc(N3CCOCC3)nc(OCCc3ccc(CN)cc3)n2)c1 | Inactive | Active | 12 nM |
| N#Cc1cc(N2CCOCC2)n2nc(-c3ccncc3)cc2n1 | Inactive | Inactive | > 10000 nM |
| Cc1cccc(/C=N/Nc2cc(N3CCOCC3)n3nc(-c4ccncc4)cc3n2)c1 [drawing 161] | Inactive | Active | – |
| Cc1cccc(/C=N/Nc2cc(N3CCOCC3)n3nc(-c4ccncc4)cc3n2)c1 [drawing 163] | Inactive | Active | – |
